Values after ≈ are worked out from the molar mass of the structure shown. Like-named read-outs stand apart in the source and are kept apart here.
How the values were obtained:
Anesthetized Dogs = assay: Cardiotonic Action: Anesthetized Dogs; type: in vivo, dog (adult mongrel); conditions: for ED50: Canis lupus familiaris, iv, read-out: LVdp/dtmax ED50; for % Changes in Heart rate / % Changes in Blood pressure: i.v.; for % Changes in Blood pressure: femoral arterial pressure
Method: Adult mongrel dogs of either sex weighing 8 to 15 kg were used.
The animals were anesthetized with sodium pentobarbital (30 mg/kg, i.v.) and maintained by an intravenous infusion of the anesthetic at a rate of 4 mg/kg per hour.
A cuffed endotracheal tube was inserted and an artificial respirator installed. The animals were ventilated with room air in a tidal volume of 20 ml/kg at a rate of 20 brearhs per minute.
Cannulae were inserted into the femoral vein for a falling drop of a physiological saline or for an infusion of the anesthetic, and into the femoral artery for measuring arterial blood pressure with a pressure transducer. Heart rate was recorded with a heart rate counter triggered by the R wave of the electrocardiogram (ECG).
ECG in standard lead II was monitored with a bioelectric amplifier.
Left ventricular pressure was measured with a catheter tip pressure transducer inserted via the right carotid artery into the left ventricle. Left ventricular dp/dtmax was obtained by an electric differentiator.
The compounds were injected through the cannula in the femoral vein at a dose of 0.001-0.3 mg/0.1 ml/kg.

PDE-I = assay: Inhibition of Phosphodiesterase PDE-I; type: biochemical, guinea pig (left ventricular muscles); conditions: 1 mM 3H-cAMP substrate
Description: (§1) The preparation of different forms of cyclic nucleotide phosphodiesterase from guinea pig left ventricular muscles was done by following the procedure of Weishaar, et al. (R. Weishaar, et al., Biochemical Pharmacology, 35, 787-800, 1986) with the minor modified method of Thompson, et al. (W. J. Thompson, et al., Advances in Cyclic Nucleotide Research, 10, 69-92, 1979). Briefly, the three active forms of phosphodiesterase (PDE-I, PDE-II, PDE-III) present in the ventricular muscles were discretely eluted from a DEAE-cellulose column (Whatman, DE-52, .phi. 2.5×20 cm) using a continuous 70-800 mM sodium acetate gradient.
(§2) The phosphodiesterase activity was assayed by minor modifications of the method described by Furutani et al. (Y. Furutani, et al., Journal of Antibiotics, 28, 558-560, 1975). Briefly, 1 mM ^3 H-cAMP was hydrolyzed by the phosphodiesterase and the unhydrolyzed ^3 H-cAMP which was separated from the formed 5'-AMP by a dry alumina (Merck, activity 1, neutral) was counted by a liquid scintillation counter.
(§3) The concentrations causing a 50% inhibition of the phosphodiesterase activity (IC50) were calculated from the concentration-inhibition curves.

PDE-II = molecular target: T1, PDE-II (Cavia porcellus, UniProt A0A286XUV5); assay: Inhibition of Phosphodiesterase PDE-II; type: biochemical, guinea pig (left ventricular muscles); conditions: 1 mM 3H-cAMP substrate
T1 construct: different forms of cyclic nucleotide phosphodiesterase from guinea pig left ventricular muscles; from tissue; host or cells: guinea pig left ventricular muscle, DEAE-cellulose fraction
T1 sequence (A0A286XUV5 22-936): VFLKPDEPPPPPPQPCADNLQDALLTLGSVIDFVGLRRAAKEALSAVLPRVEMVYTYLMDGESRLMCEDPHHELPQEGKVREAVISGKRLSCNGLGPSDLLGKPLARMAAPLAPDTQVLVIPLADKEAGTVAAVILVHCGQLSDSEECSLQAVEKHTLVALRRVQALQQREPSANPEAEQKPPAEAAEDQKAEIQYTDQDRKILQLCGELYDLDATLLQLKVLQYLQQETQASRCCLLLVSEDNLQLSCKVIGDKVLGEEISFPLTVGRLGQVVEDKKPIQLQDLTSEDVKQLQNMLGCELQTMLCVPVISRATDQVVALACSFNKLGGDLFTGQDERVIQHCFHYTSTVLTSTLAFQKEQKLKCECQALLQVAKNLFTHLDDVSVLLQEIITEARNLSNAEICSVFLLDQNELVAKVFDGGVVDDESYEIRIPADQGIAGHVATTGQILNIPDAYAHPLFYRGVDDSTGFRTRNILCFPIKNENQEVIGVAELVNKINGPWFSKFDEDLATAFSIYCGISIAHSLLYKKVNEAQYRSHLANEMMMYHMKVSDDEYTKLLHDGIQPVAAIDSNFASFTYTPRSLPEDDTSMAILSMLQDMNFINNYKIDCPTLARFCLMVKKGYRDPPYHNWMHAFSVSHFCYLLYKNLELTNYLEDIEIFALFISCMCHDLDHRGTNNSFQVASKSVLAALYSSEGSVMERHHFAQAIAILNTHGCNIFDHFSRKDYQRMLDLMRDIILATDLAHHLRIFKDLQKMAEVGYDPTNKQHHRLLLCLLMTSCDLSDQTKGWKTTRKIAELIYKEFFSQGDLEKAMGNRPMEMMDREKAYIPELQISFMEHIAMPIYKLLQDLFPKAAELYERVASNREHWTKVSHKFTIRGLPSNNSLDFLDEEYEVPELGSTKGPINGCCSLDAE
Description: as §1, §2, §3

PDE-III = molecular target: T2, PDE-III (Cavia porcellus, UniProt H0VIU9); assay: Inhibition of Phosphodiesterase PDE-III; type: biochemical, guinea pig (left ventricular muscles)
T2 construct: different forms of cyclic nucleotide phosphodiesterase from guinea pig left ventricular muscles; from tissue; host or cells: guinea pig left ventricular muscle, DEAE-cellulose fraction
T2 sequence (H0VIU9 1-1132): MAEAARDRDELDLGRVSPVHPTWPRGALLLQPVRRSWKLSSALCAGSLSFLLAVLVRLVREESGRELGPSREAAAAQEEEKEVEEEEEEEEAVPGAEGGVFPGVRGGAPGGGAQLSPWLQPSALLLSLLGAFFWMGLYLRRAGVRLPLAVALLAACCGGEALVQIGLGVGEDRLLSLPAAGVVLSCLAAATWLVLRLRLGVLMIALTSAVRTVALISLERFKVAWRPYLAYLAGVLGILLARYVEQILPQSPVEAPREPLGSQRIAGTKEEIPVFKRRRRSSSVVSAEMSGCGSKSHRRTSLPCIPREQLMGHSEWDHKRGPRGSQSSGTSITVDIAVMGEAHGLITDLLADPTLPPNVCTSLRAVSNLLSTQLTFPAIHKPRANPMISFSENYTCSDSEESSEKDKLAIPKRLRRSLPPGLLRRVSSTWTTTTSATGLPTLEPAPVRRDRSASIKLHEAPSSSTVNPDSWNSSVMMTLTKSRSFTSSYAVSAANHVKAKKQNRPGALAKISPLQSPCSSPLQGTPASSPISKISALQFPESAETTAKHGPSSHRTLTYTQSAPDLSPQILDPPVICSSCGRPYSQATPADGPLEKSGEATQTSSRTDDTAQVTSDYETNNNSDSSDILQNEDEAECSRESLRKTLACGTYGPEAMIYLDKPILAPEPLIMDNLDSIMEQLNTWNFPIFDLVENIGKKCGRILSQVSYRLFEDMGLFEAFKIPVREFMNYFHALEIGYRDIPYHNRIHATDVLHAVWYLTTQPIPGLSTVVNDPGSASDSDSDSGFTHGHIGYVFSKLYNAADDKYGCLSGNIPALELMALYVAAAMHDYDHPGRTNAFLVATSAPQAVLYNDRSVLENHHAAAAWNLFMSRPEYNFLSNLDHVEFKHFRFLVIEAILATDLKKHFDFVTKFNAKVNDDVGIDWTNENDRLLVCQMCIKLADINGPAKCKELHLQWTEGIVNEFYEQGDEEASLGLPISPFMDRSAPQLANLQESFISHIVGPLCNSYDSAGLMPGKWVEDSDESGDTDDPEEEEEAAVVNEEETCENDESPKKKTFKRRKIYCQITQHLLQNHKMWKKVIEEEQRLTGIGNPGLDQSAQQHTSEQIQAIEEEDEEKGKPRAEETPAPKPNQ
Description: as §1, §2, §3

guinea pig left atria = assay: Cardiotonic Action: Electrically Stimulating Isolated Guinea Pig Left Atria; design: species or system guinea pig (male Hartley); conditions: Cavia porcellus, read-out: contractility of guinea pig left atria EC50
Method: Male Hartley guinea pigs weighing 350-500 g were used.
The hearts were excised from the animals. The left atria were dissected from the hearts and mounted in an organ bath.
The atria were stimulated by square wave pulses of 3 msec duration and a voltage ranging from 1.2-fold to 1.5-fold of the threshold at a frequency of 60/min with an electric stimulator.
Resting tension was adjusted to 0.5 g and contraction was recorded on the Polygraph Systems with a force-displacement transducer.
All preparations were allowed to equilibrate with the bath medium for 90 to 120 min.

mice = assay: Acute Toxicity in mice, oral single dose; type: in vivo, mouse (male); conditions: male mice, 300 mg/kg, p.o., 7 days observation
Description: The acute toxicity of the test compounds was studied in male mice after oral administration of a single dose.

[1] = dose producing a 50% increase in LVdp/dtmax, anesthetized dogs
[2] = 1 mM 3H-cAMP substrate, read-out: phosphodiesterase inhibition IC50 PDE-III
[3] = concentration causing a 50% increase in contractility, cumulative addition, 30° C.

Structure (SMILES)	ED50 (Anesthetized Dogs; [1])	% Changes in Heart rate (Anesthetized Dogs; anesthetized dogs)	% Changes in Blood pressure (Anesthetized Dogs; anesthetized dogs)	IC50 (PDE-I)	IC50 (PDE-II)	IC50 (PDE-III; [2])	EC50 (guinea pig left atria; [3])	mortality (number of dead animals/number of treated animals) (mice)	EC50 (guinea pig left atria)	ED50 (Anesthetized Dogs)	IC50 (PDE-III)
CC1=C(Nc2ccc3c(c2)OCC2CC(=O)NN=C32)CCC1=O (centres unmarked) [Compound 26]	0.03 mg/kg	8%	-6%	> 1000 µM	100 µM	2.3 µM					
O=C1C=C(Nc2ccc(C3=NNC(=O)CC3)cc2)CCC1 [Compound 3]	0.009 mg/kg	2%	-4%	210 µM	180 µM	0.47 µM	0.23 µg/mL (≈ 0.812 µM)	0/3			
CC1(C)CC(=O)C=C(Nc2ccc(C3=NNC(=O)CC3)cc2)C1 [Compound 1]	0.043 mg/kg	5%	-1%	900 µM	250 µM	1.2 µM	0.23 µg/mL (≈ 0.739 µM)	0/3			
O=C1CCC(c2ccc(-n3ccnc3)cc2)=NN1 [CI-914, reference compound]	0.095 mg/kg	9%	-10%	> 1000 µM		5.7 µM	1.8 µg/mL (≈ 7.49 µM)	2/3			
CC1CC(=O)NN=C1c1ccc(NC2=CC(=O)CC2)cc1 (centres unmarked) [Compound 14, 4,5-Dihydro-6-(4-((3-oxo-1-cyclopentenyl)amino)phenyl)-5-methyl-3(2H)-pyridazinone]	0.008 mg/kg	13%	-11%	310 µM	260 µM	0.88 µM	0.12 µg/mL (≈ 0.424 µM)				
CC1=C(Nc2ccc(C3=NNC(=O)CC3)cc2)CCC1=O [Compound 4, 4,5-Dihydro-6-(4-((2-methyl-3-oxo-1-cyclopentenyl)-amino)phenyl)-3(2H)-pyridazinone]	0.012 mg/kg	5%	-2%	610 µM	330 µM	2 µM	0.24 µg/mL (≈ 0.847 µM)	1/3			
CC1=C(Nc2ccc(C3=NNC(=O)CC3C)cc2)CCC1=O (centres unmarked) [Compound 15, 4,5-Dihydro-6-(4-((2-methyl-3-oxo-1-cyclopentenyl)amino)phenyl)-5-methyl-3(2H)-pyridazinone]	0.012 mg/kg	19%	-18%	> 1000 µM	940 µM	0.59 µM	0.054 µg/mL (≈ 0.182 µM)				
Cc1[nH]c(=O)c(C#N)cc1-c1ccncc1 [Milrinone, milrinone, reference compound]		6%	-6%	151 µM	142 µM			3/3	0.43 µg/mL (≈ 2.04 µM)	0.023 mg/kg	2.8 µM
O=C1C=C(Nc2ccc3c(c2)CCC2CC(=O)NN=C32)CC1 (centres unmarked) [Compound 35]	0.023 mg/kg	3%	-4%	> 100 µM	49 µM	1.6 µM					
O=C1C=C(Nc2ccc3c(c2)OCC2CC(=O)NN=C32)CC1 (centres unmarked) [Compound 24, 8-(3-oxo-1-cyclopentenylamino)-3,4,4a,5-tetrahydro-2H-(1)benzopyrano(4,3-c)-pyridazinon-3-one]	0.022 mg/kg	4%	-7%	> 100 µM	100 µM	4.1 µM					

— patent US5110925A, “Pyridazinone derivatives” (Nippon Soda Co., Ltd., priority 1988, dated 1992)
